The term Kd denotes the concentration at which binding is half-saturated.

Kd data for 5 compounds are collected here from publication PMC9705902, “Enzymatic Characterization and Comparison of Two Steroid Hydroxylases CYP154C3-1 and CYP154C3-2 from Streptomyces Species” (Journal of Microbiology and Biotechnology, 2021).

Experiment [1] deals with T1, CYP154C3-2 (Streptomyces sp., UniProt A0A7S9IUH5).
T1 construct: full-length CDS 1,254 bp (417 residues), N-terminal Trx-His-S-enterokinase fusion from pET32a(+) kept, E. coli C41(DE3), ~65 kDa on SDS-PAGE (~45 kDa theoretical without fusion), heme protein
T1 sequence (A0A7S9IUH5 1-417): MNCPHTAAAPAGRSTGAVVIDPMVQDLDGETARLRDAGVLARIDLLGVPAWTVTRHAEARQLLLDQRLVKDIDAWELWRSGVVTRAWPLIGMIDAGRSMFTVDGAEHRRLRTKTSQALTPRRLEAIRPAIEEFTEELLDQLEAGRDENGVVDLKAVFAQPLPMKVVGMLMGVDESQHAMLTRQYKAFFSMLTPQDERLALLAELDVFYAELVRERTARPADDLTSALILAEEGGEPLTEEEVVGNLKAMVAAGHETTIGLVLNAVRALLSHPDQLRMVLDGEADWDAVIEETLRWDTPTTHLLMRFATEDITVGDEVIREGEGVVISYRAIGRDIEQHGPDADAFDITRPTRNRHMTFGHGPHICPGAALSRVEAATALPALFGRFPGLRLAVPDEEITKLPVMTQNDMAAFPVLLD
As to the kind of experiment: type I spectral shift titration (A390-A420), tight-binding quadratic fit. An excerpt:
type I spectral shift titration (A390-A420), tight-binding quadratic fit on CYP154C3-2

Experiment [2] has as its target T2, CYP154C3-1 (Streptomyces sp., UniProt A0A2H4WK73).
T2 construct: full-length CDS 1,239 bp (412 residues), N-terminal Trx-His-S-enterokinase fusion from pET32a(+) kept, E. coli C41(DE3), ~65 kDa on SDS-PAGE (~45 kDa theoretical without fusion), heme protein
The experiment is described as above. Details: species or system Streptomyces sp. W2061. An excerpt:
type I spectral shift titration (A390-A420), tight-binding quadratic fit on CYP154C3-1

T2 sequence (A0A2H4WK73 1-414): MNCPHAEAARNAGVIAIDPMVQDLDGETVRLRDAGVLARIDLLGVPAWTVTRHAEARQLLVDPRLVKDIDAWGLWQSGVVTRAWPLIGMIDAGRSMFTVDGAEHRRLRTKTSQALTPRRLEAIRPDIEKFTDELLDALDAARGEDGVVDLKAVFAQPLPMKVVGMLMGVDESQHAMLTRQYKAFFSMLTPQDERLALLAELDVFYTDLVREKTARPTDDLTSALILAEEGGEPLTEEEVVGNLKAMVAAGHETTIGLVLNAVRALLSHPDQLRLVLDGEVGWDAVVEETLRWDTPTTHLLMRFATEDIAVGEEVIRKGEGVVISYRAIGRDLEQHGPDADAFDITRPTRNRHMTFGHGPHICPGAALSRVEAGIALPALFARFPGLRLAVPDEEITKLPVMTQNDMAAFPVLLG

As to `C[C@]12CC[C@H]3[C@@H](CCC4=CC(=O)CC[C@@H]43)[C@@H]1CC[C@@H]2O` [compound 6, Nandrolone], the Kd in experiment [1] amounted to 6.58 ± 0.84 µM; in experiment [2], 13.5 ± 2.62 µM. The matching figures for `C[C@]12C[C@H](O)[C@H]3[C@@H](CCC4=CC(=O)CC[C@@]43C)[C@@H]1CC[C@@H]2C(=O)CO` [compound 3, Corticosterone]: 44.5 ± 3.97 µM and 14.1 ± 2.57 µM. `C[C@]12CCC(=O)C=C1CC[C@@H]1[C@@H]2C(=O)C[C@]2(C)C(=O)CC[C@@H]12` [compound 1, Adrenosterone]: the Kd in experiment [1] amounted to 0.443 ± 0.035 µM; in experiment [2], 0.318 ± 0.026 µM. For the compound `C[C@]12CCC(=O)C=C1CC[C@@H]1[C@@H]2CC[C@]2(C)C(=O)CC[C@@H]12` [compound 2, Androstenedione], the Kd in experiment [1] amounted to 0.475 ± 0.054 µM; in experiment [2], 0.351 ± 0.033 µM. `CC(=O)[C@H]1CC[C@H]2[C@@H]3CCC4=CC(=O)CC[C@]4(C)[C@H]3CC[C@]12C` [compound 9, Progesterone]: the Kd in experiment [1] was determined as 0.409 ± 0.037 µM.
